“And” between values parts separate entries of the source, which are not always exact repeats. Equal values may be shown once. Values belong to the compound of their own block, whether it stands above or below them.
Test system: 628569-122-R-J1-PDC complex spheroid viability
Experiment: Anticancer human tumor 628569-122-R-J1-PDC patient-derived head and neck squamous carcinoma cell line growth inhibition [CLK]
Settings: for viability, T/C: stronger effect = lower value
Description: A high-throughput screen of multi-cell type tumor spheroids was designed to identify active combinations of […] and targeted small molecules. Complex spheroids include a stromal component modeled by human endothelial cells (HUVEC) and fibroblasts modeled by human mesenchymal stem cells (MSCs). The concentration ranges selected for each drug and investigational agent were based upon clinically achievable concentrations if the clinical Cmax of the agent was known.
Compounds. The drugs and investigational agents: cirtuvivint (SM08502; NSC835563), CC-671 (NSC850746), vemurafenib (NSC761431), tapotoclax (NSC804041), sotorasib (NSC818433), adagrasib (NSC831453), MRTX-1133 (NSC836407), BAY2416964 (NSC825713), copanlisib (NSC816437), inavolisib (NSC800729), abemaciclib (NSC768073), osimertinib (NSC779217), entinostat (NSC756642), eltanexor (KPT-8602, NSC794443), venetoclax (NSC766270), ceralasertib (NSC777638), bortezomib (NSC756655), olaparib (NSC753686), talazoparib (NSC767125), alisertib (NSC759677), peposertib (NSC802822), gemcitabine (NSC613327), 5-fluorouracil (NSC19893), SN-38 (NSC673596), oxaliplatin (NSC266046), paclitaxel (NSC125973), and doxorubicin (NSC123127), were obtained from the National Cancer Institute (NCI) Developmental Therapeutics Program Chemical Repository. The FDA-approved anticancer drug set is available from the Developmental Therapeutics Program at https://dtp.cancer.gov/organization/dscb/obtaining/available plates.htm. […] The stock solutions were prepared in dimethyl sulfoxide (DMSO, Sigma-Aldrich, St. Louis, MO, cat. D2650), except for the platinum complexes which were prepared in saline (Quality Biological, Gaithersburg, MD, cat. 114-055-101), at 800-fold the tested concentration and stored at -70 degrees C prior to their use. All drugs and investigational agents were tested over a range starting from a high concentration at or near the clinical Cmax and decreasing in half-log increments. If the clinical Cmax for an agent had not been determined, the highest concentration tested was 10 microM.
Cell Culture. All cells were maintained in an incubator at 37 degrees C and 5% CO2 with 95% humidity. The PDC lines were cultured according to standard operating procedures established by the NCI PDMR. Briefly, all PDCs were thawed and cultured in Matrigel-coated flasks prepared with a working solution of 1X Ham's F-12 nutrient mix, without supplementation (Invitrogen, Waltham, MA, cat. 11765054), 100 U/mL penicillin-streptomycin (Invitrogen, cat. 15140122), and 2.5% Matrigel (Corning Inc., Corning, NY, cat. 354248) for the first three passages. The 947758-054-R-J2-PDC line was cultured in 6B/Colon 1A media, which includes advanced DMEM/F-12 (Thermo Fisher Scientific, cat. 12634028), 10 mM HEPES (Thermo Fisher Scientific, cat. 15630080), 1X GlutaMAX supplement (Thermo Fisher Scientific, cat. 35050061), 0.1 mg/mL primocin (InvivoGen, cat. ant-pm-2), 10% defined fetal bovine serum, heat inactivated (HyClone Laboratories Inc., cat. SH30070.03HI), 1.25 mM N-Acetyl-L-cysteine (Sigma-Aldrich, cat. A9165), 10 mM nicotinamide (Sigma-Aldrich, cat. N0636), 1X B-27 supplement (Thermo Fisher Scientific, cat. 17504044), 1X N-2 supplement (Thermo Fisher Scientific, cat. 17502048), and 10 microM Y-27632 dihydrochloride (Tocris Bioscience, cat. 1254). The 876862-298-R-J1-PDC was cultured in 6E media, which includes all 6B/Colon 1A media components plus 50% L-WRN conditioned media (ATCC, cat. CRL-3276), 50 ng/mL recombinant human EGF recombinant protein (hEGF; Thermo Fisher Scientific, cat. PHG0311), 10 ng/mL recombinant human fibroblast growth factor 10 (hGFG-10; PeproTech, cat. 100-26), 1 ng/mL recombinant human fibroblast growth factor 2 (hFGF-2; PeproTech, cat. 100-18B), and 1 µM prostaglandin E2 (PGE2; Tocris, cat. 2296). The 227483-062-R1-J1-PDC line was cultured in Panc media, containing all 6E components except hFGF-2, with the addition of 500 nM SB-431542 (Selleckchem, cat. S1067) and 10 nM gastrin (Tocris, cat. 3006). […]
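Note: spheroids exposed to agents for seven days before readout.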
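Throughout, for viability, T/C: 100% = DMSO vehicle control viability.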

IC50 (curve of compound): 626 nM and 65.4 nM
Compound: Nc1ccn(C2OC(CO)C(O)C2(F)F)c(=O)n1 (stereo not drawn)
viability, T/C (compound 0.0316 µM): 56.4% and 64.8% | viability, T/C (compound 0.1 µM): 48.9% and 39.6% | viability, T/C (compound 0.316 µM): 59% and 51.7% | viability, T/C (compound 1 µM): 42.4% and 32.9% | viability, T/C (compound 3.16 µM): 49.2% and 40.4% | viability, T/C (compound 10 µM): 45.5% and 42%

IC50 (curve of first compound, second compound 0.0316 µM): < 31.6 nM | IC50 (curve of first compound, second compound 0.1 µM): < 31.6 nM | IC50 (curve of first compound, second compound 0.316 µM): < 31.6 nM | IC50 (curve of first compound, second compound 1 µM): < 31.6 nM | IC50 (curve of first compound, second compound 3.16 µM): < 31.6 nM | IC50 (curve of first compound, second compound 10 µM): < 31.6 nM
Compound: CC(=O)O[C@H]1C(=O)[C@@]2(C)[C@H]([C@H](OC(=O)c3ccccc3)[C@]3(O)C[C@H](OC(=O)[C@H](O)[C@@H](NC(=O)c4ccccc4)c4ccccc4)C(C)=C1C3(C)C)[C@]1(OC(C)=O)CO[C@@H]1C[C@@H]2O + CNC(=O)c1ccc(Nc2nc(OC3CCCC3)c3c(-c4ccc5nc(C)oc5c4)c[nH]c3n2)c(OC)c1
viability, T/C (second compound 0.0316 µM, first compound 0.0316 µM): 34.6% | viability, T/C (second compound 0.0316 µM, first compound 0.1 µM): 33.5% | viability, T/C (second compound 0.0316 µM, first compound 0.316 µM): 36.6% | viability, T/C (second compound 0.0316 µM, first compound 1 µM): 35.9% | viability, T/C (second compound 0.0316 µM, first compound 3.16 µM): 36.5% | viability, T/C (second compound 0.0316 µM, first compound 10 µM): 59% | viability, T/C (second compound 0.1 µM, first compound 0.0316 µM): 50.4% | viability, T/C (second compound 0.1 µM, first compound 0.1 µM): 47.4% | viability, T/C (second compound 0.1 µM, first compound 0.316 µM): 49.6% | viability, T/C (second compound 0.1 µM, first compound 1 µM): 55.5% | viability, T/C (second compound 0.1 µM, first compound 3.16 µM): 67.9% | viability, T/C (second compound 0.1 µM, first compound 10 µM): 68.4% | viability, T/C (second compound 0.316 µM, first compound 0.0316 µM): 43.1% | viability, T/C (second compound 0.316 µM, first compound 0.1 µM): 55.3% | viability, T/C (second compound 0.316 µM, first compound 0.316 µM): 59.7% | viability, T/C (second compound 0.316 µM, first compound 1 µM): 63.9% | viability, T/C (second compound 0.316 µM, first compound 3.16 µM): 72.9% | viability, T/C (second compound 0.316 µM, first compound 10 µM): 72.9% | viability, T/C (second compound 1 µM, first compound 0.0316 µM): 41.4% | viability, T/C (second compound 1 µM, first compound 0.1 µM): 53% | viability, T/C (second compound 1 µM, first compound 0.316 µM): 55.2% | viability, T/C (second compound 1 µM, first compound 1 µM): 57.6% | viability, T/C (second compound 1 µM, first compound 3.16 µM): 57.9% | viability, T/C (second compound 1 µM, first compound 10 µM): 68.5% | viability, T/C (second compound 3.16 µM, first compound 0.0316 µM): 44.8% | viability, T/C (second compound 3.16 µM, first compound 0.1 µM): 51.6% | viability, T/C (second compound 3.16 µM, first compound 0.316 µM): 56.8% | viability, T/C (second compound 3.16 µM, first compound 1 µM): 56.6% | viability, T/C (second compound 3.16 µM, first compound 3.16 µM): 60.9% | viability, T/C (second compound 3.16 µM, first compound 10 µM): 64.7% | viability, T/C (second compound 10 µM, first compound 0.0316 µM): 41.2% | viability, T/C (second compound 10 µM, first compound 0.1 µM): 47% | viability, T/C (second compound 10 µM, first compound 0.316 µM): 55.3% | viability, T/C (second compound 10 µM, first compound 1 µM): 64.2% | viability, T/C (second compound 10 µM, first compound 3.16 µM): 65% | viability, T/C (second compound 10 µM, first compound 10 µM): 69.9%

IC50 (curve of compound): 1930 nM and 1080 nM
Compound: CC1COCCN1c1cc(C2(S(C)(=N)=O)CC2)nc(-c2ccnc3[nH]ccc23)n1 (stereo not drawn)
viability, T/C (compound 0.0316 µM): 106% and 94.9% | viability, T/C (compound 0.1 µM): 89.1% and 89.6% | viability, T/C (compound 0.316 µM): 102% and 68.9% | viability, T/C (compound 1 µM): 65.9% and 50.8% | viability, T/C (compound 3.16 µM): 42.5% and 40.7% | viability, T/C (compound 10 µM): 33.7% and 33.3%

IC50 (curve of compound): 5990 nM and 6930 nM
Compound: C=C(F)C(=O)N1CCN(c2nc(OCC3CCCN3C)nc3c2CCN(c2cccc4cccc(Cl)c24)C3)CC1CC#N (stereo not drawn)
viability, T/C (compound 0.0316 µM): 79.5% and 98.1% | viability, T/C (compound 0.1 µM): 108% and 77.6% | viability, T/C (compound 0.316 µM): 85.4% and 79.5% | viability, T/C (compound 1 µM): 93.6% and 82.5% | viability, T/C (compound 3.16 µM): 116% and 123% | viability, T/C (compound 10 µM): 12.6% and 30.3%

Source: PubChem BioAssay AID2060611 (Molecular Pharmacology Branch, DTP, NCI, 2025)
